Measurements reported in US10092575B2, “Substituted thiophene- and furan-fused azolopyrimidine-5-(6H)-one compounds” (DART NEUROSCIENCE (CAYMAN) LTD., priority 2012, dated 2018).

What follows are compounds tested against human PDE1b enzyme (Homo sapiens (Human), UniProt Q01064) (assay: PDE1b inhibitory assay (IMAP TR-FRET)). Details: not given.

SMILES | EC50 [nM]
O=c1n(Cc2ccccc2Cl)c2sccc2c2ncnn12 [Example 1, 6-(2-Chlorobenzyl)thieno[3,2-e][1,2,4]triazolo[1,5-c]pyrimidin-5(6H)-one] | 1000 to 10000
O=c1n(Cc2cccc(Cl)c2)c2sccc2c2ncnn12 [Example 2, 6-(3-Chlorobenzyl)thieno[3,2-e][1,2,4]triazolo[1,5-c]pyrimidin-5(6H)-one] | 1000 to 10000
Cc1csc2c1c1ncnn1c(=O)n2Cc1ccc(Cl)cc1 [Example 3, 6-(4-Chlorobenzyl)-9-methylthieno[3,2-e][1,2,4]triazolo[1,5-c]pyrimidin-5(6H)-one] | 100 to 1000
O=c1n(Cc2ccc(Cl)cc2)c2sccc2c2ncnn12 [Example 5, 6-(4-Chlorobenzyl)thieno[3,2-e][1,2,4]triazolo[1,5-c]pyrimidin-5(6H)-one] | 100 to 1000
Cc1csc2c1c1ncnn1c(=O)n2Cc1ccccc1 [Example 6, 6-Benzyl-9-methylthieno[3,2-e][1,2,4]triazolo[1,5-c]pyrimidin-5(6H)-one] | 100 to 1000
O=c1n(Cc2ccccc2Cl)c2sc(Cc3ccccc3)cc2c2ncnn12 [Example 8, 8-benzyl-6-(2-Chlorobenzyl)thieno[3,2-e][1,2,4]triazolo[1,5-c]pyrimidin-5(6H)-one] | 100 to 1000
O=c1n(Cc2cccc(Cl)c2)c2sc(Cc3ccccc3)cc2c2ncnn12 [Example 9, 8-Benzyl-6-(3-chlorobenzyl)thieno[3,2-e][1,2,4]triazolo[1,5-c]pyrimidin-5(6H)-one] | 100 to 1000
Cc1csc2c1c1ncnn1c(=O)n2Cc1ccccc1Cl [Example 10, 6-(2-Chlorobenzyl)-9-methylthieno[3,2-e][1,2,4]triazolo[1,5-c]pyrimidin-5(6H)-one] | 1000 to 10000
Cc1csc2c1c1ncnn1c(=O)n2Cc1cccc(Cl)c1 [Example 11, 6-(3-Chlorobenzyl)-9-methylthieno[3,2-e][1,2,4]triazolo[1,5-c]pyrimidin-5(6H)-one] | 100 to 1000
Cc1cc2c(s1)n(Cc1ccccc1)c(=O)n1ncnc21 [Example 12, 6-Benzyl-8-methylthieno[3,2-e][1,2,4]triazolo[1,5-c]pyrimidin-5(6H)-one] | 1000 to 10000
Cc1cc2c(s1)n(Cc1ccccc1Cl)c(=O)n1ncnc21 [Example 13, 6-(2-Chlorobenzyl)-8-methylthieno[3,2-e][1,2,4]triazolo[1,5-c]pyrimidin-5(6H)-one] | 1000 to 10000
Cc1cc2c(s1)n(Cc1ccc(Cl)cc1)c(=O)n1ncnc21 [Example 15, 6-(4-Chlorobenzyl)-8-methylthieno[3,2-e][1,2,4]triazolo[1,5-c]pyrimidin-5(6H)-one] | 100 to 1000
Cc1cc2c(s1)n(Cc1cccc(Cl)c1)c(=O)n1ncnc21 [Example 16, 6-(3-Chlorobenzyl)-8-methylthieno[3,2-e][1,2,4]triazolo[1,5-c]pyrimidin-5(6H)-one] | 1000 to 10000
O=c1n(Cc2ccccc2)c2sc(Cc3ccccc3)cc2c2ncnn12 [Example 17, 6,8-Dibenzylthieno[3,2-e][1,2,4]triazolo[1,5-c]pyrimidin-5(6H)-one] | 100 to 1000
O=c1n(Cc2ccc(-c3ccccc3)cc2)c2sc(Cc3ccccc3)cc2c2ncnn12 [Example 18, 6-([1,1′-Biphenyl]-4-ylmethyl)-8-benzylthieno[3,2-e][1,2,4]triazolo[1,5-c]pyrimidin-5(6H)-one] | 1000 to 10000

Same assay, conditions: negative log of half-maximal molar inhibitory concentration; 200 nM FAM-cAMP; reported as ranges

SMILES | PDE1b (pEC50)
O=c1n(Cc2ccc(-c3ccccc3)cc2)c2sccc2c2ncnn12 [Example 4, 6-([1,1′-Biphenyl]-4-ylmethyl)thieno[3,2-e][1,2,4]triazolo[1,5-c]pyrimidin-5(6H)-one] | <5
Cc1csc2c1c1ncnn1c(=O)n2Cc1ccc(-c2ccccc2)cc1 [Example 7, 6-([1,1′-Biphenyl]-4-ylmethyl)-9-methylthieno[3,2-e][1,2,4]triazolo[1,5-c]pyrimidin-5(6H)-one] | <5
Cc1cc2c(s1)n(Cc1ccc(-c3ccccc3)cc1)c(=O)n1ncnc21 [Example 14, 6-([1,1′-Biphenyl]-4-ylmethyl)-8-methylthieno[3,2-e][1,2,4]triazolo[1,5-c]pyrimidin-5(6H)-one] | <5
